Experimental data reported in EP0868914B1, “USE OF A FLAVONOID-CONTAINING EXTRACT OF THE PLANT EUPHORBIA PROSTRATA IN THE MANUFACTURE OF A MEDICAMENT FOR THE TREATMENT OF AN ANORECTIC OR COLONIC DISEASE” (PANACEA BIOTEC LIMITED, priority 1997, dated 1998).
Marks after values point to notes of the source that are not given here.

How the values were obtained:
[1] = tested on: croton oil-induced oedema in mice ears; test: Croton oil ear test (oedema), topical; conditions: for Activity Ratio on Molar basis: Indomethacin = 1; for ID50 / ID50 (column head printed: Activity Ratio): croton oil ear test in mice, Italian institute data
[2] = tested on: granulocyte infiltration (MPO activity); test: Granulocyte infiltration (MPO activity) in the croton oil ear test; assay type: in vivo, mice; conditions: One unit = 1 nMol/min. of tetraguaiacol formed at 25°C
[3] = tested on: Carrageenan-induced Pedal Oedema; test: Carrageenan-induced pedal oedema in rats (oral extract, intraperitoneal indomethacin); assay type: in vivo; conditions: for Oedema + SEM (%): intraperitoneal
[4] = tested on: Carrageenan-induced Mice Paw Oedema; test: Carrageenan-induced paw oedema in mice, topical application; assay type: in vivo; conditions: topical Indomethacin
Protocol: The duration of action of topical preparation was determined by studying the effects of different concentrations of the drug on oedema over a period of 8 hr. As evident from the Table 3, the peak inhibition was observed after 3-4 hours of carrageenan injection begining at 2 hr for the extract at lower concentrations (0.5-2.0%) and 1 hr. at 4 % concentration.

[5] = 1.26µMol, 6 hours after treatment
[6] = 1.26µMol, 18 hours after treatment
[7] = 1.26µMol, 30 hours after treatment

For `O=c1cc(-c2ccc(O)cc2)oc2cc(O[C@@H]3O[C@H](CO)[C@@H](O)[C@H](O)[C@H]3O)cc(O)c12` [Apigenin-7-glucoside], the “Activity Ratio on Molar basis” value [1] was 0.32, the ID50 [1] was 175 µg/ear and the “ID50 (column head printed: Activity Ratio)” value [1] was 0.404 µmol/ear.

With `C[C@]12CCC(=O)C=C1CC[C@@H]1[C@@H]2[C@@H](O)C[C@@]2(C)[C@H]1CC[C@]2(O)C(=O)CO` [Hydrocortisone] the “Effect on granulocyte infiltration (MPO activity)” value (“Effect on granulocyte infiltration” for short) ([2]; 0.41µMol, 6 hours after treatment) was 0.0±0.2 unit, the “Effect on granulocyte infiltration” value ([2]; 0.41µMol, 18 hours after treatment) was 6.9±2.1 unit and the “Effect on granulocyte infiltration” value ([2]; 0.41µMol, 30 hours after treatment) was 8.2±2.4 unit. The “Effect on Oedema Development” value ([1]; 0.41 µMol, 6 hours after treatment) was 0.5 ± 0.2 mg, the “Effect on Oedema Development” value ([1]; 0.41 µMol, 18 hours after treatment) was 0.7 ± 0.1 mg and the “Effect on Oedema Development” value ([1]; 0.41 µMol, 30 hours after treatment) was 0.7 ± 0.1 mg. For the same molecule, the “antiinflammatory activity (oedema) in words” value ([1]; 18 hours after treatment) was “maintain their effect to a certain extent”, the “Activity Ratio on Molar basis” value [1] was 14.00 and the ID50 [1] was 3.3 µg/ear. The “ID50 (column head printed: Activity Ratio)” value [1] was 0.009 µmol/ear.

`COc1ccc2c(c1)c(CC(=O)O)c(C)n2C(=O)c1ccc(Cl)cc1` [Indomethacin] was tested, and the inhibition of oedema ([3]; 1mg/kg, i.p.) was 74%, the “Oedema + SEM (%)” value ([3]; 0.5 mg/Kg, +30 min) was 13.6±4.0% and the “Oedema + SEM (%)” value ([3]; 0.5 mg/Kg, +60 min) was 18.9±4.0%. The “Oedema + SEM (%)” value ([3]; 0.5 mg/Kg, +120 min) was 28.8±4.2%, the “Oedema + SEM (%)” value ([3]; 1.0 mg/Kg, +30 min) was 9.3±2.3% and the “Oedema + SEM (%)” value ([3]; 1.0 mg/Kg, +60 min) was 12.3±2.2%. The “Oedema + SEM (%)” value ([3]; 1.0 mg/Kg, +120 min) was 16.4±1.6%, the “Oedema + SEM (%)” value ([3]; 2.0 mg/Kg, +30 min) was 8.2±1.5% and the “Oedema + SEM (%)” value ([3]; 2.0 mg/Kg, +60 min) was 12.8±1.8%. For the same molecule, the “inhibition of Carrageenan-induced Mice Paw Oedema” value ([4]; Dose 1.00 %, +60 m) was 18.2** %, the “inhibition of Carrageenan-induced Mice Paw Oedema” value ([4]; Dose 1.00 %, +120 m) was 24.0** % and the “inhibition of Carrageenan-induced Mice Paw Oedema” value ([4]; Dose 1.00 %, +180 m) was 29.0** %. The “inhibition of Carrageenan-induced Mice Paw Oedema” value ([4]; Dose 1.00 %, +240 m) was 21.2** %, the “inhibition of Carrageenan-induced Mice Paw Oedema” value ([4]; Dose 1.00 %, +360 m) was 9.6** % and the “inhibition of Carrageenan-induced Mice Paw Oedema” value ([4]; Dose 1.00 %, +480 m) was 4.6%. For the same molecule, the “inhibition of Carrageenan-induced Mice Paw Oedema” value ([4]; Dose 2.00 %, +60 m) was 24.2* %, the “inhibition of Carrageenan-induced Mice Paw Oedema” value ([4]; Dose 2.00 %, +120 m) was 26.0* % and the “inhibition of Carrageenan-induced Mice Paw Oedema” value ([4]; Dose 2.00 %, +180 m) was 41.9*** %. For the same molecule, the “inhibition of Carrageenan-induced Mice Paw Oedema” value ([4]; Dose 2.00 %, +180 m, listed as indomethacin) was 41.9%, the “inhibition of Carrageenan-induced Mice Paw Oedema” value ([4]; Dose 2.00 %, +240 m) was 36.4* % and the “inhibition of Carrageenan-induced Mice Paw Oedema” value ([4]; Dose 2.00 %, +360 m) was 11.5* %. The “inhibition of Carrageenan-induced Mice Paw Oedema” value ([4]; Dose 2.00 %, +480 m) was 10.6%, the “Effect on granulocyte infiltration” value [2, 5] was 0.0±0.1 unit and the “Effect on granulocyte infiltration” value [2, 6] was 10.0±1.6 unit. For the same molecule, the “Effect on granulocyte infiltration” value [2, 7] was 6.8±3.4 unit, the “Effect on Oedema Development” value [1, 5] was 0.0 ± 0.1 mg and the “Effect on Oedema Development” value [1, 6] was 3.1 ± 0.4 mg. The “Effect on Oedema Development” value [1, 7] was 0.5 ± 0.1 mg, the “antiinflammatory activity (oedema) in words” value ([1]; 18 hours after treatment) was “lose their antiinflammatory activity” and the “Activity Ratio on Molar basis” value [1] was 1.00. The ID50 [1] was 46.1 µg/ear and the “ID50 (column head printed: Activity Ratio)” value [1] was 0.126 µmol/ear.

In the case of `O=c1c(O)c(-c2ccc(O)c(O)c2)oc2cc(O)cc(O)c12` [Quercetin], the “Activity Ratio on Molar basis” value [1] is reported as 0.65, the ID50 [1] is reported as 60.3 µg/ear and the “ID50 (column head printed: Activity Ratio)” value [1] is reported as 0.200 µmol/ear.

In the case of `C[C@@H]1O[C@@H](OC[C@H]2O[C@@H](Oc3c(-c4ccc(O)c(O)c4)oc4cc(O)cc(O)c4c3=O)[C@H](O)[C@@H](O)[C@@H]2O)[C@H](O)[C@H](O)[C@H]1O` [Rutin], the “Activity Ratio on Molar basis” value [1] is reported as 0.28, the ID50 [1] is reported as 282 µg/ear and the “ID50 (column head printed: Activity Ratio)” value [1] is reported as 0.462 µmol/ear.
